From patent publication US10150737B2, “Compounds for controlling arthropods” (priority 2013, dated 2018)

Tests used:
Ctenocephalides felis [1] = assay: Ctenocephalides felis - in vitro contact tests with adult cat fleas; assay type: in vivo; conditions: application rate 5 μg/cm2 (=500 g/ha); after 48 h; fleas dead or moribund
Protocol: For the coating of the test tubes, 9 mg of active ingredient are first dissolved in 1 ml of acetone p.a. and then diluted to the desired concentration with acetone p.a. 250 μl of the solution are distributed homogeneously on the inner walls and base of a 25 ml test tube by turning and rocking on an orbital shaker (rocking rotation at 30 rpm for 2 h). With 900 ppm active ingredient solution and internal surface area 44.7 cm^2, given homogeneous distribution, an area-based dose of 5 μg/cm^2 is achieved.
After the solvent has evaporated off, the tubes are populated with 5-10 adult cat fleas (Ctenocephalides felis), sealed with a perforated plastic lid and incubated in a horizontal position at room temperature and ambient humidity. After 48 h, efficacy is determined. To this end, the test tubes are stood upright and the fleas are knocked to the base of the tube. Fleas which remain motionless at the base or move in an uncoordinated manner are considered to be dead or moribund.
100% efficacy means that all the fleas were dead or moribund. 0% efficacy means that no fleas were harmed.

[2] = logP determination by HPLC on a reversed-phase column (C18); assay type: physicochemical; conditions: for logP^a): HPLC-MS method a); for log P: HPLC-MS
Ctenocephalides felis [3] = assay: Ctenocephalides felis - oral test; assay type: in vivo; conditions: application rate 100 ppm in citrated cattle blood; after 2 days
Outline: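 Roughly 20 unfed adult C. felis imbibe compound-dosed citrated cattle blood (DMSO formulation) across parafilm from a cylinder above their gauze chamber; percentage mortality recorded at day 2.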

Lucilia cuprina = Lucilia cuprina test; assay type: in vivo; conditions: application rate 100 ppm; L1 larvae; after 2 days
Protocol: (§1) Solvent: dimethyl sulphoxide
(§2) To produce an appropriate active ingredient formulation, 10 mg of active ingredient are mixed with 0.5 ml of dimethyl sulphoxide, and the concentrate is diluted with water to the desired concentration.
About 20 L1 larvae of the Australian sheep blowfly (Lucilia cuprina) are transferred into a test vessel containing minced horsemeat and the active ingredient preparation of the desired concentration.
After 2 days, the kill in % is determined. 100% means that all the larvae have been killed; 0% means that none of the larvae have been killed.

Boophilus microplus = Boophilus microplus - injection test; assay type: in vivo; conditions: application rate 20 μg/animal; injection into engorged adult female ticks; after 7 days
Outline: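 Five engorged adult female cattle ticks each received a 1 μl abdominal injection of compound solution in dimethyl sulphoxide. Fertile egg laying was assessed at 7 days, with doubtful eggs incubated about 42 days until hatch. 0% efficacy means all eggs fertile.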

Musca domestica = Musca domestica test; assay type: in vivo; conditions: application rate 100 ppm; adult houseflies; after 2 days
Protocol: as §1, §2
Vessels containing a sponge treated with sugar solution and the active ingredient formulation of the desired concentration are populated with 10 adult houseflies (Musca domestica).
After 2 days, the kill in % is determined. 100% means that all of the flies have been killed; 0% means that none of the flies have been killed.

Phaedon cochleariae = Phaedon cochleariae - spray test; assay type: in vivo; conditions: larvae on Chinese cabbage leaf discs, after 7 days
Outline: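 Mortality of mustard beetle larvae was scored as % at day 7 on Brassica pekinensis leaf discs. Discs had been treated by spraying at the desired concentration, using an acetone/dimethylformamide solution diluted in water with 1000 ppm alkylaryl polyglycol ether, and dried before larvae were added.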

Spodoptera frugiperda = Spodoptera frugiperda - spray test; assay type: in vivo; conditions: caterpillars on maize leaf discs, after 7 days
Outline: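 Percent mortality of Spodoptera frugiperda caterpillars scored 7 days after placing them on dried maize leaf discs sprayed at the desired concentration. Spray formulation: compound dissolved in acetone/dimethylformamide, made up with water containing 1000 ppm emulsifier.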

Tetranychus urticae = Tetranychus urticae - spray test, OP-resistant; assay type: in vivo; conditions: bean leaf discs, after 6 days
Outline: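 Mortality (%) read on day 6 after spraying Phaseolus vulgaris leaf discs carrying all mite stages with formulations at the desired concentration. Formulation: active ingredient in acetone plus dimethylformamide, made up with emulsifier-containing water (1000 ppm alkylaryl polyglycol ether).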

[4] = reversed-phase column (C18), Table I-T3

| SMILES | efficacy (Ctenocephalides felis [1]) | logP^a) ([2]; reversed-phase column (C18)) | log P [2, 4] | efficacy (kill) (Ctenocephalides felis [3]) | efficacy (kill) (Lucilia cuprina) | efficacy (laying of fertile eggs) (Boophilus microplus) | efficacy (kill) (Musca domestica) | efficacy (Phaedon cochleariae; application rate 100 g/ha) | efficacy (Spodoptera frugiperda; application rate 100 g/ha) | logP ([2]; HPLC, C18 reversed phase, acetonitrile/water with formic acid, EEC Directive 79/831 Annex V.A8) | logP^a) [2] | logP^a) [2, 4] | efficacy (Tetranychus urticae; application rate 500 g/ha) | efficacy (Phaedon cochleariae; application rate 500 g/ha) | efficacy (Spodoptera frugiperda; application rate 500 g/ha) | efficacy (Tetranychus urticae; application rate 100 g/ha) |
| --- | --- | --- | --- | --- | --- | --- | --- | --- | --- | --- | --- | --- | --- | --- | --- | --- |
| CNc1ncc(-c2cnn(-c3c(Cl)cc(C(F)(C(F)(F)F)C(F)(F)F)cc3Cl)c2)cc1C(=O)NC1CC1 [I-T3-136] | 100% | 3.5 | 3.5 | 100% | 100% | 100% | 100% | 100% | 100% | – | – | – | – | – | – | – |
| Cc1cc(C(F)(C(F)(F)F)C(F)(F)F)cc(C)c1-n1ccc(-c2ccc(Cl)c(C(=O)NC3CC3)c2)c1 [I-T46-2] | 100% | – | – | 100% | 100% | 100% | – | 100% | 100% | 5.0 | – | – | – | – | – | – |
| Cc1cc(C(F)(C(F)(F)F)C(F)(F)F)cc(C)c1-n1cc(-c2cccc(C(=O)NC3CC3)c2F)cn1 [I-T3-9] | 100% | – | – | 100% | 100% | 100% | – | – | – | – | 4.3 | 4.3 | 100% | 100% | 100% | – |
| Cc1cc(C(F)(C(F)(F)F)C(F)(F)F)cc(C)c1-n1cc(-c2cc(C(=O)NC3CC3)ccc2F)cn1 [I-T3-13] | 100% | – | – | 80% | – | 100% | – | – | – | – | 4.5 | 4.5 | – | – | – | – |
| CCNC(=O)c1cc(-c2cnn(-c3c(Cl)cc(C(F)(F)F)cc3Cl)c2)cnc1C [I-T3-147] | 100% | 4.0 | 4.0 | – | – | – | – | – | – | – | – | – | – | – | – | 90% |
| COCCNc1ncc(-c2cnn(-c3c(Cl)cc(C(F)(C(F)(F)F)C(F)(F)F)cc3Cl)c2)cc1C(=O)NC1CC1 [I-T3-138] | 100% | 4.1 | 4.1 | – | – | – | – | 83% | 100% | – | – | – | – | – | – | 90% |
| N#CC1(CNC(=O)c2cc(-c3cnn(-c4c(Cl)cc(C(F)(C(F)(F)F)C(F)(F)F)cc4C(F)(F)F)c3)ccc2Cl)CC1 [I-T3-199] | 100% | – | – | – | – | – | – | – | – | – | – | – | – | – | – | – |
| N#CC1(NC(=O)c2cc(-c3cnn(-c4ccc(OC(F)(F)F)cc4Cl)c3)ccc2Cl)CC1 [I-T3-89] | – | – | – | 100% | 100% | 100% | 100% | – | – | – | 3.5 | 3.5 | 90% | 100% | 100% | – |
| Cc1cc(C(F)(C(F)(F)F)C(F)(F)F)cc(C)c1-n1cc(-c2ccc(Cl)c(C(=O)NCC(F)(F)F)c2)cn1 [I-T3-2] | – | – | – | 100% | 100% | 100% | 100% | 100% | 100% | – | 4.7 | 4.7 | – | – | – | 100% |
| Cc1cc(C(F)(C(F)(F)F)C(F)(F)F)cc(C)c1-n1cc(-c2cnc(C3CC3)c(C(=O)NC3(C#N)CC3)c2)cn1 [I-T3-139] | – | 4.1 | 4.1 | 100% | 100% | 100% | 90% | 100% | 100% | – | – | – | – | – | – | 100% |
| Cc1cc(C(F)(C(F)(F)F)C(F)(F)F)cc(C)c1-n1cc(-c2cc(C(=O)NC3(C#N)CC3)c(Cl)cc2F)cn1 [I-T3-17] | 100% | – | – | 95% | 100% | 100% | – | – | – | – | 4.4 | 4.4 | – | 100% | 100% | – |
